Test results taken from ChEMBL document CHEMBL3808316, “Design, synthesis and biological evaluation of novel tetrahydroisoquinoline quaternary derivatives as peripheral κ-opioid receptor agonists” (Bioorg Med Chem, 2016).
pKi: −log10 of the molar value.

Key:
[1] = molecular target: T1, Kappa-type opioid receptor (Homo sapiens, UniProt P41145); assay: Displacement of [3H]diprenorphine from human kappa opioid receptor expressed in CHO cell membranes at 10^-5 M after 30 mins by liquid scintillation counting analysis
[2] = molecular target: T1, Kappa-type opioid receptor; assay: Displacement of [3H]diprenorphine from human kappa opioid receptor expressed in CHO cell membranes at 10^-6 M after 30 mins by liquid scintillation counting analysis
[3] = molecular target: Mu-type opioid receptor (Rattus norvegicus) (UniProt P33535); assay: Displacement of [3H]diprenorphine from rat mu opioid receptor expressed in CHO cell membranes at 10^-6 M after 30 mins by liquid scintillation counting analysis
[4] = molecular target: Mu-type opioid receptor (Rattus norvegicus) (UniProt P33535); assay: Displacement of [3H]diprenorphine from rat mu opioid receptor expressed in CHO cell membranes at 10^-5 M after 30 mins by liquid scintillation counting analysis
[5] = molecular target: T1, Kappa-type opioid receptor; assay: Displacement of [3H]diprenorphine from human kappa opioid receptor expressed in CHO cell membranes after 30 mins by liquid scintillation counting analysis
Mus musculus [6] = assay: Sedative activity in sc dosed Kunming mouse assessed as center square duration time at 25 ug/kg after 45 mins by open field test (reference value: 13.2 +/- 3.1 secs); assay type: ADME, organism-based; conditions: in vivo, 0.025 mg/kg, 0.75 h
Mus musculus [7] = assay: Sedative activity in sc dosed Kunming mouse assessed as crossing number at 25 ug/kg after 45 mins by open field test (reference value: 155 +/- 34); assay type: ADME, organism-based; conditions: in vivo, 0.025 mg/kg, 0.75 h
Mus musculus [8] = assay: Antinociceptive activity in ip dosed mouse assessed as acetic acid induced writhing administered 30 mins prior to acetic acid challenge measured for 20 mins; assay type: functional
Mus musculus [9] = assay: Sedative activity in sc dosed Kunming mouse assessed as center square duration distance at 25 ug/kg after 45 mins by open field test (reference value: 1.77 +/- 0.81 m); assay type: ADME, organism-based; conditions: in vivo, 0.025 mg/kg, 0.75 h
Mus musculus [10] = assay: Sedative activity in sc dosed Kunming mouse assessed as […] after 20 mins by rotation test; assay type: ADME, organism-based; conditions: in vivo
Mus musculus [11] = assay: Peripheral restriction index, ratio of sedative ED50 in sc dosed Kunming mouse to antinociceptive ED50 in ip dosed mouse
[12] = Selectivity ratio of Ki for rat mu opioid receptor to Ki for human kappa opioid receptor
Mus musculus [13] = assay: Sedative activity in sc dosed Kunming mouse assessed as center square duration time at 200 ug/kg after 45 mins by open field test (reference value: 13.2 +/- 3.1 secs); assay type: ADME, organism-based; conditions: in vivo, 0.2 mg/kg, 0.75 h
Mus musculus [14] = assay: Sedative activity in sc dosed Kunming mouse assessed as crossing number at 50 ug/kg after 45 mins by open field test (reference value: 155 +/- 34); assay type: ADME, organism-based; conditions: in vivo, 0.05 mg/kg, 0.75 h
Mus musculus [15] = assay: Sedative activity in sc dosed Kunming mouse assessed as crossing number at 100 ug/kg after 45 mins by open field test (reference value: 155 +/- 34); assay type: ADME, organism-based; conditions: in vivo, 0.1 mg/kg, 0.75 h
Mus musculus [16] = assay: Sedative activity in sc dosed Kunming mouse assessed as center square duration time at 100 ug/kg after 45 mins by open field test (reference value: 13.2 +/- 3.1 secs); assay type: ADME, organism-based; conditions: in vivo, 0.1 mg/kg, 0.75 h
Mus musculus [17] = assay: Sedative activity in sc dosed Kunming mouse assessed as center square duration distance at 50 ug/kg after 45 mins by open field test (reference value: 1.77 +/- 0.81 m); assay type: ADME, organism-based; conditions: in vivo, 0.05 mg/kg, 0.75 h
Mus musculus [18] = assay: Sedative activity in sc dosed Kunming mouse assessed as center square duration distance at 100 ug/kg after 45 mins by open field test (reference value: 1.77 +/- 0.81 m); assay type: ADME, organism-based; conditions: in vivo, 0.1 mg/kg, 0.75 h
Mus musculus [19] = assay: Sedative activity in sc dosed Kunming mouse assessed as center square duration distance at 200 ug/kg after 45 mins by open field test (reference value: 1.77 +/- 0.81 m); assay type: ADME, organism-based; conditions: in vivo, 0.2 mg/kg, 0.75 h
Mus musculus [20] = assay: Sedative activity in sc dosed Kunming mouse assessed as center square duration time at 50 ug/kg after 45 mins by open field test (reference value: 13.2 +/- 3.1 secs); assay type: ADME, organism-based; conditions: in vivo, 0.05 mg/kg, 0.75 h
Mus musculus [21] = assay: Potency index, ratio of antinociceptive ED50 for U50488H to antinociceptive ED50 for test compound in ip dosed mouse after 20 mins; assay type: functional
Mus musculus [22] = assay: Sedative activity in sc dosed Kunming mouse assessed as crossing number at 200 ug/kg after 45 mins by open field test (reference value: 155 +/- 34); assay type: ADME, organism-based; conditions: in vivo, 0.2 mg/kg, 0.75 h

T1 sequence (P41145 whole entry): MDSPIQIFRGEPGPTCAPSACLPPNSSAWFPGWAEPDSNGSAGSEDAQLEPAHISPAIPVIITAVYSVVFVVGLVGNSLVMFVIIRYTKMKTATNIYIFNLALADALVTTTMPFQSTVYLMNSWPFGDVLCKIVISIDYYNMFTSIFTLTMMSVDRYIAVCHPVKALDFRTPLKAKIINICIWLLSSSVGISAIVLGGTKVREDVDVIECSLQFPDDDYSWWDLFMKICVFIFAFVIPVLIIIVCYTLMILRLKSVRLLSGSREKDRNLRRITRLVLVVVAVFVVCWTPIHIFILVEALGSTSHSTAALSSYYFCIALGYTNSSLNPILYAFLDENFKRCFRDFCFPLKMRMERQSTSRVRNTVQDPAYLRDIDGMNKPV
Mu-type opioid receptor (Rattus norvegicus), sequence (P33535 whole entry): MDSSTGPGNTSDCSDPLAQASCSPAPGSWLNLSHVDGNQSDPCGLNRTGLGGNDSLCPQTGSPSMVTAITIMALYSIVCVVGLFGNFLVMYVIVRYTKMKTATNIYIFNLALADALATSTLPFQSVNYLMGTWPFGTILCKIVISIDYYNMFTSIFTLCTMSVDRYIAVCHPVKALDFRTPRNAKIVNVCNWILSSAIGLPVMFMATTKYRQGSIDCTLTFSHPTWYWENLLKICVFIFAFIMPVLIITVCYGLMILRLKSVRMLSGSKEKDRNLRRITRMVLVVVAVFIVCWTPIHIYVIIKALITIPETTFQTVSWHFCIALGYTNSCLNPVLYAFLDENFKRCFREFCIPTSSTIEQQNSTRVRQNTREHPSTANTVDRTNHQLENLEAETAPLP

inhibition [1] | inhibition [2] | inhibition [3] | inhibition [4] | Structure (SMILES) | pKi [5] | other results
86% | 43.1% | 0% | 0% | O=C1CC(C(=O)N2CCc3ccccc3C2C[N+]2(Cc3ccccc3)CCCC2)c2cc(Cl)ccc21 (stereo not drawn) | – | –
8.6% | 0% | 0% | 0% | COc1ccc2c(c1)C(C[N+]1(C)CCCC1)N(C(=O)C1CC(=O)c3ccc(Cl)cc31)CC2 (stereo not drawn) | – | –
97.4% | 86% | 8.9% | 26.5% | C[N+]1(CC2c3cc(F)ccc3CCN2C(=O)C2CC(=O)c3ccc(Cl)cc32)CCCC1 (stereo not drawn) | 6.86 | –
83.7% | 10.8% | 0% | 0% | C[N+]1(CC2c3ccccc3CCN2C(=O)C2CC(=O)c3ccc(Cl)cc32)CCCC1 (stereo not drawn) | < 5.00 | –
89.3% | 31.3% | 0% | 10% | O=C1CC(C(=O)N2CCc3ccccc3C2C[N+]2(Cc3ccc(Cl)cc3)CCCC2)c2cc(Cl)ccc21 (stereo not drawn) | – | –
85.5% | 50% | 4% | 9.8% | COc1ccc2c(c1)CCN(C(=O)C1CC(=O)c3ccc(Cl)cc31)C2C[N+]1(C)CCCC1 (stereo not drawn) | – | –
89.1% | 31.9% | 0% | 0% | CC[N+]1(CC2c3ccccc3CCN2C(=O)C2CC(=O)c3ccc(Cl)cc32)CCCC1 (stereo not drawn) | – | –

The next lines start with the molecule.

Structure (SMILES) | inhibition [1] | inhibition [2] | inhibition [3] | inhibition [4] | pKi [5] | other results
O=C1CC(C(=O)N2CCc3ccccc3C2C[N+]2(CC3CC3)CCCC2)c2cc(Cl)ccc21 (stereo not drawn) | 100% | 98.8% | 29.2% | 48% | 8.45 | –
O=C1CC(C(=O)N2CCc3ccccc3C2CN2CCCC2)c2cc(Cl)ccc21 (stereo not drawn) | – | – | – | – | 10.48 | Time (Mus musculus [6]): 27.1 s; Activity (Mus musculus [7]): 71; ED50 (Mus musculus [8]): 0.000406 mg/kg; Activity (Mus musculus [9]): 1.21 m; ED50 (Mus musculus [10]): 0.000568 mg/kg; Ratio ED50 (Mus musculus [11]): 1.4; Ratio Ki [12]: 21.1
CCCC[N+]1(CC2c3ccccc3CCN2C(=O)C2CC(=O)c3ccc(Cl)cc32)CCCC1.[I-] (stereo not drawn) | 100% | 100% | 28.8% | 62.4% | 9.03 | Time (Mus musculus [13]): 27.4 s; Activity (Mus musculus [14]): 153; Activity (Mus musculus [15]): 138; ED50 (Mus musculus [8]): 0.022 mg/kg; ED50 (Mus musculus [10]): 0.24 mg/kg; Ratio ED50 (Mus musculus [11]): 10.2; Time (Mus musculus [16]): 19.1 s; Activity (Mus musculus [17]): 1.02 m; Activity (Mus musculus [18]): 1.92 m; Activity (Mus musculus [19]): 1.93 m; Time (Mus musculus [20]): 17.4 s; Ratio ED50 (Mus musculus [21]): 40; Activity (Mus musculus [22]): 91
O=C1CC(C(=O)N2CCc3ccccc3C2C[N+]2(Cc3ccc(F)cc3)CCCC2)c2cc(Cl)ccc21 (stereo not drawn) | 13.1% | 0% | 0% | 0% | – | –
C=CC[N+]1(CC2c3ccccc3CCN2C(=O)C2CC(=O)c3ccc(Cl)cc32)CCCC1 (stereo not drawn) | 100% | 100% | 37.4% | 56.5% | 8.73 | –
O=C1CC(C(=O)N2CCc3ccccc3C2C[N+]2(Cc3ccc(Cl)cc3Cl)CCCC2)c2cc(Cl)ccc21 (stereo not drawn) | 31.9% | 12.1% | 0% | 10.4% | – | –
C[N+]1(CC2c3ccc(O)cc3CCN2C(=O)C2CC(=O)c3ccc(Cl)cc32)CCCC1 (stereo not drawn) | 87.7% | 67.3% | 8.2% | 34.5% | 6.64 | –
COc1ccc(C[N+]2(CC3c4ccccc4CCN3C(=O)C3CC(=O)c4ccc(Cl)cc43)CCCC2)cc1 (stereo not drawn) | 83% | 3.9% | 0% | 9.8% | – | –
